From US6743785B2, “Agents and methods for the treatment of proliferative diseases” (Eli Lilly and Company, priority 1999, dated 2004)

How the values were obtained:
cyclin D1-cdk4 [1] = target: T1, cyclin D1-cdk4 (Homo sapiens, UniProt P11802); assay: Assay of Cyclin D1-cdk4 kinase activity with the ING peptide as substrate; format: biochemical; conditions: 200 uM ING peptide, 300 uM ATP, 60 minutes, room temperature
Procedure: Assay of Cyclin D1-cdk4 kinase activity with the ING Peptide as Substrate
The cyclin D1-cdk4 kinase activity of a compound was assayed by preparing a 100 ul reaction at the following concentrations: 35 mM Hepes pH 7.0, 10 mM MgCl2, 300 uM ATP, 200 uM ING peptide, 1.0 uCi of γ-^33P-ATP, 4.34 ug of cyclin D-cdk4 enzyme, 4% DMSO, and various concentrations of inhibitor. The reaction was incubated at room temperature (about 74° F.) for 60 minutes, and then terminated by the addition of 100 ul of 10% phosphoric acid. Next, the reaction was filtered through a Millipore Multiscreen-PH Plate—Catalog number MAPH NOB 10, and the plate was washed 2 times with 320 ul each of 0.5% phosphoric acid, followed by the addition of 100 ul of scintillation fluid and quantitation on a Packard Instruments, Top Count, scintillation counter.

[2] = tested on: HCT-116 or NCI H460 cells; assay: Cell growth inhibition assay (MTT); format: cell-based; conditions: 72 h drug exposure
Procedure: Cell Growth Inhibition Assay The MTT assay was used to measure growth inhibitory activity (Schultz, R. M., et. al. Oncology Res. 5, 223-228, 1993). […] Basically, 1000 HCT-116 or NCI H460 cells were added per well to 96-well flat-bottom plates in 100-ul RPMI 1640 medium containing 10% dialyzed fetal bovine serum. The plates were incubated for 24 h prior to addition of test compounds. A stock solution (10 mM) was prepared in DMSO and serially diluted in medium. Compound dilutions were added to triplicate wells, and the plates were incubated for 72 hours.

[3] = tested on: HCT-116 and NCI H460 cell lines; assay: Cell cycle analysis using flow cytometry; format: cell-based; conditions: compound at 1x IC50 and 3x IC50, 24 hours, DNA histogram analysis
Procedure: Cell Cycle Analysis Using Flow Cytometry
The HCT-116 and NCI H460 cell lines were seeded in 75 cm^2 flasks at 5×10^5 cells/25 ml RPMI 1640 medium containing 10% dialyzed fetal bovine serum. They were incubated for 24 hours. […] The cells were subsequently harvested and the protocol (Robinson, J. P. and Darzynkiewicz, Z. Current Protocols in Cytometry. 1997) for staining was followed. DNA histogram analysis was performed using ModFit LT(Verity House).

[4] = tested on: Ser-780 pRb phosphorylation in HCT116 cells; assay: Inhibition of Rb phosphorylation assay; format: cell-based, Human; conditions: 1x, 2x and 3x IC50, 24 hours, immunoblot
Procedure: Inhibition of Rb Phosphorylation Assay
Human HCT116 colon carcinoma cell line was purchased from American Tissue Culture Collection (Rockville, Md.) and maintained as monolayer in RPMI-1640 with L-Glutamine and 25 mM HEPES supplemented with 10% fetal bovine serum in a 37° C. incubator with a 10% CO2 atmosphere. The detection of mycoplasm in cultured cells was performed using Mycoplasma Rapid Detection System (TaKaRa Shuzo Co. Ltd., Shiga, Japan) every 2-3 months and the cells were found consistently negative throughout these experiments. The Rb phosphorylation assay was done be plating 4×10^5 cells/well in 6-well plates. […] At the end of the incubation period the mediumj was removed and the cells were washed twice with cold PBS containing 1 mM sodium orthovanadate (Na3VO4). […] Protein concentration was determined by the Bio-Rad DC protein assay (Bio-Rad, Hercules, Calif.). […] Proteins were detected by capturing image of the membrane using Quantity One Software on a Fluor-S multi-Imager (Bio-Rad, Hercules, Calif.) in a linear range. Specific bands were quantified using Quantity One Software. […] Results are expressed as a percentage inhibition of Ser-780 pRb phosphorylation in drug treated cells versus control DMSO treated cells.

protein kinase C = conditions: cited from earlier work
protein kinase A = conditions: cited from earlier work
cyclin D1-cdk4 [5] = target: T1, cyclin D1-cdk4; assay: Assay of Cyclin D1-cdk4 kinase activity with the Rb21 protein as substrate; format: biochemical; conditions: 5 ug Rb21 protein, 30 uM ATP, 60 minutes, room temperature; read-out: Kinase Activity with Rb2l
Procedure: Assay of Cyclin D1-cdk4 Kinase Activity with the Rb21 Protein as Substrate
The cyclin D1-cdk4 kinase activity of a compound was assayed by preparing a 100 ul reaction at the following concentrations: 20 mM Hepes pH 7.0, 10 mM MgCl2, 30 uM ATP, 5 ug of Rb21 protein (Santa Cruz Biotech, Catalog # sc-4112), 1.0 uCi of γ-^33P-ATP, 1.09 ug of cyclin D-cdk4 enzyme, 4% DMSO, and various concentrations of inhibitor. The reaction was incubated at room temperature (about 74° F.) for 60 minutes, and then terminated by the addition of 100 ul of 25% trichloroacetic acid. Next, the reaction was filtered through a Millipore Multiscreen-FC Plate—Catalog number MAFC NOB 10, and the plate was washed 2 times with 320 ul each of 10% trichloroacetic acid, followed by the addition of 100 ul of scintillation fluid and quantitation on a Packard Instruments, Top Count, scintillation counter.

T1 sequence (P11802 whole entry): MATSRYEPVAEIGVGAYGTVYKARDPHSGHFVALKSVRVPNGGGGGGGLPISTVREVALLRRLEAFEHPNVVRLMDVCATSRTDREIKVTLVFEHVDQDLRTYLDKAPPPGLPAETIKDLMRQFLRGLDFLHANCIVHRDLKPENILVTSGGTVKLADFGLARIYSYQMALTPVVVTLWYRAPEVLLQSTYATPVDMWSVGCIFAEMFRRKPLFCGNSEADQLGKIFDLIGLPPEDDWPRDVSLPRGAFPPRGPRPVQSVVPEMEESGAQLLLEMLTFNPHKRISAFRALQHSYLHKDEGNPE
T1 sequence (P24385 whole entry partner): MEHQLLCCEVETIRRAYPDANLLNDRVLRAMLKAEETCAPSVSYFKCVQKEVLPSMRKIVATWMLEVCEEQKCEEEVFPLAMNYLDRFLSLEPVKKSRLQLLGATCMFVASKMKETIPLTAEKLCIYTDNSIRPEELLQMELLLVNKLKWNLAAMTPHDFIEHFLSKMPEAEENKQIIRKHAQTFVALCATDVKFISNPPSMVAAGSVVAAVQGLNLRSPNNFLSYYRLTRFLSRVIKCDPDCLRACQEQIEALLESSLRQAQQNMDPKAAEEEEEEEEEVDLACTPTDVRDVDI

Row | Structure (SMILES) | IC50 (cyclin D1-cdk4 [1]) [nM] | further results
1 | CC1(C)Cc2cccc3c4c5c(c6c7cccc8c7n(c6c4n(c23)C1)CCNC8)C(=O)NC5=O | 51 | –
2 | CC1(C)CCn2c3c1cc(F)cc3c1c3c(c4c5cccc6c5n(c4c12)CCNC6)C(=O)NC3=O | 413 | –
3 | CC1(C)Cc2cccc3c(C4=C(c5cn6c7c(cccc57)CNCC6)C(=O)NC4=O)cn(c23)C1 | 621 | –
4 | CC1(C)CCn2cc(C3=C(c4cn5c6c(cccc46)CNCC5)C(=O)NC3=O)c3cc(F)cc1c32 | 186 | –
5 | CC1(C)CCn2cc(C3=C(c4cn5c6c(cccc46)CNCC5)C(=O)NC3=O)c3cccc1c32 | 537 | –
6 | CC1(C)CCc2cccc3c(C4=C(c5cn6c7c(cccc57)CNCC6)C(=O)NC4=O)cn1c23 | 349 | –
7 | Cl.O=C1NC(=O)c2c1c1c3cccc4c3n(c1c1c2c2cccc3c2n1CCNC3)CCC4 [Example 5] | – | cell growth inhibition [2]: inhibit cell growth; cell cycle arrest [3]: arrest cells in the G1 phase of the cell cycle; inhibition of Ser-780 pRb phosphorylation [4]: inhibit Rb (retinoblastoma protein) phosphorylation
8 | CN1CC[C@H](c2c(O)cc(O)c3c(=O)cc(-c4ccccc4Cl)oc23)[C@H](O)C1 [Flavopiridol] | – | concentration at which protein kinase C is inhibited (protein kinase C): ≥ 10 μM/L; concentration at which protein kinase A is inhibited (protein kinase A): ≥ 10 μM/L
9 | O=C1NC(=O)c2c1c1c3cccc4c3n(c1c1c2c2cccc3c2n1CCCNC3)CCC4 [drawing 39] | 605 | –
10 | O=C1NC(=O)c2c1c1c3cccc4c3n(c1c1c2c2cccc3c2n1CCNC3)CCC4 [drawing 40] | 35.4 | –
11 | O=C1NC(=O)C(c2cn3c4c(cccc24)NCCC3)=C1c1cn2c3c(cccc13)CCC2 [drawing 43] | 143 | –
12 | O=C1NC(=O)c2c1c1c3cccc4c3n(c1c1c2c2cccc3c2n1CCCNC3)CCC4 [drawing 48] | – | IC50 (cyclin D1-cdk4 [5]): 336 nM
13 | O=C1NC(=O)c2c1c1c3cccc4c3n(c1c1c2c2cccc3c2n1CCNC3)CCC4 [drawing 49] | – | IC50 (cyclin D1-cdk4 [5]): 5.8 nM
14 | O=C1NC(=O)C(c2cn3c4c(cccc24)NCCC3)=C1c1cn2c3c(cccc13)CCC2 [drawing 50] | – | IC50 (cyclin D1-cdk4 [5]): 196 nM
